Results published in patent publication US20110201105A1, “LACTATION-ASSOCIATED POLYPEPTIDES” (Dairy Australia Limited, priority 2007, published 2011).

Legend:
[1] = test system: ERK; assay: ERK assay for cell growth-promoting activity (TGR assay), Swiss 3T3 fibroblast cells; format: cell-based; settings: tammar LAM corresponding to the bovine sample of Table 24
Experimental: (§1) Plasmids containing Tammar wallaby LAMs were directionally cloned into the expression vector pCMV Sport 6.0, and then transfected into the human kidney cell line HK293. A total of 1 μg of LAM-containing plasmid DNA and 10 ng of pEGFP-C1 plasmid was introduced into 70% confluent HK293 cells in 2 cm^2 wells containing 500 ul of opti-MEM-1 media. Transfection success was assessed by observing green fluorescence of cells by fluorescent microscopy. After 48 hours conditioned media containing the secreted polypeptide was collected and frozen at −20° C. The media containing the secreted polypeptides was then used directly in a variety of bioactivity assays. For the assays described below, samples of secreted polypeptides were aliquoted into individual wells of 96 or 384 well plates and stored, prior to assaying, either frozen or lyophilized.
(§2) A negative control created by transfection with an insertless vector was used in all assays. For the assays described in Examples 4A, 4B, 4C and 4D results for samples were in the form of relative fluorescence units (RFU) as described herein. […] In some cases, RFU less than two standard deviations from the mean were considered significant if the LAM sample in question produced a positive result in another assay.
Extracellular signal-regulated protein kinase (ERK) is a common and central signal transduction pathway component of tyrosine kinase receptor. Activation of ERK is indicative of an extracellular proliferation signal and provides an index of a growth promoting agent.
Swiss 3T3 fibroblast cells were plated into 384 well plates, grown to confluence and starved overnight with serum-free medium. Cells were then treated for 10 minutes with a LAM polypeptide prepared as described above. Cells were then lysed and assayed for activation of ERK. Samples were assessed for changes in the activity of ERK.
The results of ERK activation assays are shown in Table 6 as relative fluorescence units (RFU). […] These same samples are equated with LAM numbers as represented in Table 7. […]

[2] = test system: AGS cells; assay: Cell growth using bovine cathelicidin variants in AGS cells (SRB assay); format: cell-based, human; set-up: unit not given here; settings: 72 hours; for cell growth Replicate 3: -ve control 0.233; for cell growth Replicate 1: -ve control 0.247; for cell growth Replicate 4: -ve control 0.265; for cell growth Replicate 2: -ve control 0.316; for cell growth Mean: -ve control mean 0.265
Experimental: A cellular growth assay was performed using seven bovine cathelicidin (CATHL) variants, namely CATHL1, 4, and 6 which are known in the art (the relevant sequences can be obtained using the following hyperlink: http://www.ncbi.nlm.nih.gov/entrez/query.fcqi?db=unigene&cmd=search&term=cathelicidin) and bovine Cathelicidins 8, 9, 10 and 11 (being LAMs 32.8, 32.9, 32.10 and 32.11, respectively) as identified herein and which are derived from LAM 32. The bovine cathelicidin associated LAMs were derived by sequence comparison to the tammar polynucleotide sequence of LAM 32.
The growth rate of AGS cells was assessed in the presence of the cathelicidins. Equal numbers of human gastric epithelial AGS cells were cultured in either control media or media conditioned with bovine cathelicidins for 72 hours in a 1:10 dilution of serum and antibiotic-free Optimem. Cells were then fixed and a Sulforhodamine B (SRB) colorimetric assay was undertaken as described in Journal of Immunological Methods 208: 151-158, K. T. Papazisis, G. D. Geromichalos, K. A. Dimitriadis, A. H. Kortsaris (1997), ‘Optimization of the sulforhodamine B colorimetric assay’.
Briefly, cells were fixed directly by incubation with 10% trichloroacetic acid for 1 hour at 4° C., washed with water, air-dried overnight and then stained with 0.4% w/v sulforhodamine B, 1% acetic acid solution for 10 minutes at room temperature. Cell were again washed with 1% acetic acid and air-dried, then counted in triplicate.

[3] = test system: chicks; assay: Chick growth assay (in ovo injection, weight at hatching); format: in vivo; settings: for Chick weight: bovine polypeptides in conditioned media, 1 ml in ovo on day 16 of incubation, weighed on day of hatching, Saline 51.0
Experimental: FIG. 5. Chick growth assay by measuring weight. 10 LAMs (being bovine homologues having homology to specific Tammar ESTs), 3 known bovine cathelicidins, and four bovine cathelicidin variants were tested. Conditioned media containing a LAM polypeptides or bovine cathelicidins or variants thereof was diluted in a total of 1 ml of normal saline. Eggs on day 16 of incubation were injected with 1 ml of the media containing the into the broad end of the egg. Chicks were weighed on day of hatching. The overall condition of the chick was assessed including the possible presence of stumpy legs and/or loss of down feathers.
Conditioned media containing LAM polypeptides or bovine cathelicidins or variants thereof were diluted in a total of 1 ml of normal saline. Eggs on day 16 of incubation were injected in ovo with 1 ml of LAM polypeptides or bovine cathelicidins or variants thereof into the broad end of the egg. Chicks were weighed on day of hatching. Controls included saline only, or saline and 10 mg/ml of a peptide as a random peptide control.
As set out in Table 23, the left column indicates the polypeptide used in the assay while the right column contains chick weight in grams as a measurement of chick growth. Bolded numbers represent a chick(s) larger than the controls and more than 2 standard deviations from the mean. In addition, bolded numbers represent chicks that have been killed. The mean represents the weight of all the chicks tested within this experiment.

[4] = test system: HSC-2 oral epithelial cells; assay: Cell viability assay to assess anti- and pro-apoptotic effects (vinblastine, Alamar Blue); format: cell-based; settings: HSC-2 cells
Experimental: as §1, §2
Vinblastine is a commonly used cytotoxic agent used in chemotherapy. It induces apoptosis in a wide variety of cell types. Caspase activation and DNA fragmentation are hallmarks of the apoptotic process.
Aliquots of the secreted polypeptide samples in 96 well plates were pipetted onto HSC-2 oral epithelial cells and the cells left for 24 hours. After this time, the cells were treated with vinblastine to induce apoptosis. After a further 48 hours, the cells were analyzed for survival using a vital dye, namely Alamar Blue (resazurin) fluorescent dye (TGR BioSciences Pty Ltd, Adelaide, Australia). This dye method is a TGR proprietary assay technology and as such would be known by a person skilled in the art. Internal controls for induction of cell death via apoptosis as well as assay performance were also included on each plate. Cell survival measurements with this technique reflected the degree of apoptosis.

[5] = test system: p38 MAPK; assay: p38 MAPK assay of inflammatory activity in the presence of LPS, RAW macrophage cells; format: cell-based
Experimental: as §1
A negative control created by transfection with an insertless vector was used in all assays. For the assays described in Examples 4A, 4B, 4C and 4D results for samples were in the form of relative fluorescence units (RFU) as described herein. […]
Activation of p38 MAPK was assessed in RAW macrophage cells in the presence of lipopolysaccharide (LPS), which is a potent stimulator of the immune system and which mimics bacterial infection, thereby providing a model system for inflammation. […]

Molecule	tammar ERK activity [1]	cell growth Replicate 3 [2]	cell growth Replicate 1 [2]	cell growth Replicate 4 [2]	cell growth Replicate 2 [2]	cell growth Mean [2]	Chick weight [3]	death / overall condition of chick ([3]; in ovo injection on day 16 of incubation)	RFU (pro-apoptotic activity) ([4]; Alamar Blue, Mean RFU 1758076, SD RFU 108156)	anti- or pro-apoptotic activity (RFU versus mean) ([4]; text summary of Tables 8-11)	anti-inflammatory activity (RFU significantly below the mean) ([5]; RAW macrophage cells with LPS, text summary of Tables 14 and 15)	RFU (p38 inhibition, anti-inflammatory activity) ([5]; RAW macrophage cells, 30 minutes sample then LPS 30 minutes, Mean RFU 35980, SD RFU 4227, negative control 45833 RFU)
CATHL1: bovine cathelicidin 1, known in the art (RLCRIVVIRVCR; UniProt P22226 144-155, looked up) [reference compound]	yes	0.303	0.412	0.378	0.419	0.378	52.8 grams					
CATHL2: bovine cathelicidin listed under LAM32, sample number 15 (RFRPPIRRPPIRPPFYPPFRPPIRPPIFPPIRPPFRPPLGPFP; UniProt P19660 131-173, looked up)	yes											
CATHL5: bovine cathelicidin 5 (known sequence) (GGLRSLGRKILRAWKKYGPIIVPIIRIG; UniProt P54229 132-159, looked up) [reference compound]	yes	0.382	0.423	0.415	0.441	0.415	Killed	caused death of chicks				
LAM 17: FGL2: Fibrinogen like-1 (Table 24); tammar polypeptide SEQ ID NO 47, bovine SEQ ID NO 107 (protein, UniProt Q29RY7 16-441, looked up) Fibroleukin: TYGFLVVANNETEEIKDEAAQNACRVRLESRGRCEEEGECPYQVNLPPLTIQLPKQFSRIEEVFKEVQNLKEIVNSLKKTCQDCKLQADDSRDPGRNGLLLPGTGAPGETGDNRVRELEGEVNKLSSDLKNAKEEIDVLQGRLEKLNLVNMNNIEQYVDSKVANLTFVVNSLDGKCSSKCPRQEQIQSLPVQQHLIYKDCSEYYTIGKRSSELYRVTPEPRNSSFEVFCDMETMAGGWTVLQARVDGSTNFTRTWQDYKVGFGNLRREFWLGNDKIHLLTKSKDMILRIDLEDFNGIKLYALYDHFYVANEFLKYRLHIGNYNGTAGDALRFSKHYNHDLKFFTTPDRDNDRYPSGNCGLYYSSGWWFDACLSANLNGKYYHQKYRGVRNGIFWGTWPGISEAQPGGYKSSFKEVKMMIRPKHFKP							49.2 grams		1478245 RFU	pro-apoptotic activity	anti-inflammatory activity	20814 RFU
